Laboratory results: US20090233893A1, “Methods of Dissolving Beta-Sheet Proteins and Uses Thereof” (priority 2006, published 2009)
Where “and” joins values, the source holds several entries; their conditions need not be identical. Equal values may be shown once. Marks after values point to notes of the source that are not given here.

Assays:
Aβ 42 wild type peptide = molecular target: T1, Aβ 42 wild type peptide (Homo sapiens, UniProt P05067); assay: Dissolution of Aβ 42 wild type peptide by metallized chelator, FTIR amide bands; type: biochemical; conditions: Aβ42 wt dissolved in 500 mM chelator/heavy water solution
T1 construct: The amide I band for the Aβ 42 wild type peptide in the solid state; gift of Dr. Jorge Ghiso
Method: (§1) Each metal salt-chelator solution was prepared with a slight excess of metal salt. Chelator-dissolved proteins were then lyophilized twice to eliminate water and resuspended in 200 μl aliquots of heavy water for spectral analysis.
(§2) Fourier Transform Infrared (FTIR) Spectroscopy: Metal chelator-dissolved β-sheet samples were injected into a sample cell with calcium fluoride windows and 0.05 mm path length. The instrument (Nicolet Magna JR 560 Spectrometer, ThermoNicolet, Madison, Wis.) resolution was 4 cm^−1; 1000 scans were collected.
(§3) Spectral subtraction as well as curve fitting and second derivative analysis of the amide I bands was carried out with the software program, Grams/32 Spectral Notebase, version 4.02, level 1 (ThermoNicolet, Madison, Wis.). Curvefitting parameters were not restricted; the fraction of Lorentzian line shape was allowed to vary. The second derivative analysis was carried out using a Savitsky-Golay algorithm, using either a third or fourth degree polynomial fit.

Aβ 40 wild type peptide = molecular target: T2, Aβ 40 wild type peptide (Homo sapiens, UniProt P05067); assay: Dissolution of Aβ 40 wild type peptide by metallized chelator, FTIR amide bands; type: biochemical; conditions: Aβ40 wt dissolved in 500 mM chelator/heavy water solution
T2 construct: The amide I band for the Aβ 40 wild type peptide; gift of Dr. Jorge Ghiso
Method: as §1, §2, §3

[1] = molecular target: T3, Aβ 40 E22Q mutant peptide (Homo sapiens, UniProt P05067, E693Q); assay: Dissolution of Aβ 40 E22Q mutant peptide by metallized chelator, FTIR amide bands; type: biochemical; conditions: Aβ40 E22Q dissolved in 500 mM chelator/heavy water solution
T3 sequence (P05067 672-711 E693Q): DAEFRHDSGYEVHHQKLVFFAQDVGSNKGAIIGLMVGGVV
Method: as §1, §2, §3

B. mori fibroin = conditions: for Dissolution of fibroin: basic 500 mM solution, 1:1 molar ratio
[2] = test system: tau paired helical filaments; conditions: basic 500 mM solution, 1:1 molar ratio
[3] = molecular target: T4, Aβ 42 E22Q mutant peptide (Homo sapiens, UniProt P05067, E693Q); assay: Dissolution of Aβ 42 E22Q mutant peptide by metallized chelator, FTIR amide bands; type: biochemical; conditions: Aβ42 E22Q dissolved in 500 mM chelator/heavy water solution
T4 sequence (P05067 672-713 E693Q): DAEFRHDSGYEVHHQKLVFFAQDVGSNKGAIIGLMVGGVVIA
Method: as §1, §2, §3

wool = wool tertiary structure is a bundle of α-helices; selectivity
Excerpt: Wool's tertiary structure is a bundle of α-helices. […] The polyproline II conformation of collagen places its dihedral angles in the immediate vicinity of those for the β-sheet structure on a Ramachandran plot. Thus, choice of cation confers selectivity.

Aβ 40 E22Q = Aβ 40 E22Q (Homo sapiens, UniProt P05067, E693Q); type: biochemical; conditions: Aβ 40 E22Q incubated at room temperature for 67 hours, pH 7.4
[4] = Environmental Protection Agency (1999); cited from earlier work
human erythrocytes = conditions: Funder et al., 1978; cited from earlier work

| SMILES | Amide I peak of metal chelator-dissolved peptide (Aβ 42 wild type peptide) | Amide II peak of metal chelator-dissolved peptide (Aβ 42 wild type peptide) | Amide I peak of metal chelator-dissolved peptide (Aβ 40 wild type peptide) | Amide II peak of metal chelator-dissolved peptide (Aβ 40 wild type peptide) [cm⁻¹] | Amide I peak of metal chelator-dissolved peptide [1] | Amide II peak of metal chelator-dissolved peptide [1] [cm⁻¹] | Dissolution of fibroin (B. mori fibroin) | Dissolution of paired helical filaments [2] | Amide I peak of metal chelator-dissolved peptide [3] | Amide II peak of metal chelator-dissolved peptide [3] [cm⁻¹] | Dissolution of wool (wool) | Thioflavin T fluorescence yield less than that of the chelator-free aliquot (Aβ 40 E22Q) [%] | Speed of the dissolution process for the silk or fibroin fiber (B. mori fibroin; judged by eye, more rapid than in the Li^+ ethylene diamine bromide solution) | Toxicity, EPA determination [4] | Increase of lithium influx into human erythrocytes over lithium chloride (human erythrocytes) |
| --- | --- | --- | --- | --- | --- | --- | --- | --- | --- | --- | --- | --- | --- | --- | --- |
| NCCN.[Br-].[Li+] [Li^+en, Li^+ ethylene diamine bromide] | 1626‡ cm^−1 and 1673 cm^−1 | 1562 cm⁻¹ | 1629 cm⁻¹ and 1646 cm⁻¹ and 1673 cm⁻¹ | 1562 | 1621‡ cm^−1 and 1673 cm^−1 | 1531 | can be dissolved | can be dissolved | 1625‡ cm^−1 and 1673 cm^−1 | 1531 | not found to dissolve |  |  |  |  |
| NCCN.[Cu+2].[OH-].[OH-] [Cu^2+en, Cu^2+ ethylene diamine hydroxide] | 1673 cm⁻¹ | 1534 cm⁻¹ and 1591 cm⁻¹ | 1673 cm⁻¹ | 1594 | 1673 cm⁻¹ | 1590 | can be dissolved | can be dissolved | 1673 cm⁻¹ | 1590 | not found to dissolve | 27 | instantaneous on contact | safe for human consumption |  |
| O=C([O-])O.[Li+] [Lithium bicarbonate] |  |  |  |  |  |  |  |  |  |  |  |  |  |  | twelve-fold |
